Measurements published in patent publication US7772251B2, “N-sulphonylated amino acid derivatives, method for the production and use thereof” (The Medicines Company (Leipzig) GmbH, priority 2003, dated 2010).

test system: matriptase-expressing colon carcinoma cell line DLD-1; assay: Inhibition of invasive growth (Matrigel invasion assay); format: cell-based; conditions: proHGF-stimulated; inhibitor 30 μM; 48 hours; FIG. 1
Description: A common test system for invasive growth at the cellular level is the Matrigel invasion assay. This entails cells being applied to an artificial extracellular matrix and investigation of how many cells migrate through the latter within a defined period.
It is shown here by way of example for the matriptase inhibitors 37 and 54 that invasive growth is influenced and the migration of matriptase-expressing colon carcinoma cell line DLD-1 through Matrigel is inhibited:
The wells of a ‘Transwell’ plate were each coated with 10 μg of Matrigel and 160 000 DLD-1 cells (Dexter et al, Cancer Research 39: 1020-1025 (1979)) in 100 μl of medium (RPMI 1640, with 2% Ultroser HY serum substituted) were applied to each, invasive growth was stimulated by adding ProHGF in 400 μl of medium with and without inhibitor (30 μM). After incubation at 37° C. and 5% CO2 for 48 hours, the cells which had migrated through the matrix were fixed, stained and photographed at 100× magnification.

In the case of `N=C(N)NCCC1CCN(C(=O)[C@H](Cc2cccc(C(=N)N)c2)NS(=O)(=O)c2ccc3ccccc3c2)CC1.O=C(O)C(F)(F)F.O=C(O)C(F)(F)F` [Compound 37, 2-Nas-Phe(3-Am) 4(guanidinoethyl)piperidide], the “inhibition of migration/invasion of DLD-1 cells through Matrigel” value is reported as “inhibited”.

test system: matriptase-expressing prostate carcinoma cells (PC-3); assay: Inhibition of proHGF-induced cell scattering (scatter assay); format: cell-based; conditions: proHGF-stimulated; inhibitor 3 μM; 6 days; FIG. 2
Description: Because of its ability to induce the detachment of cells from an isolated assemblage and the dissemination of the cells, HGF is also referred to as scatter factor. This function can be detected at the cellular level with the aid of the so-called scatter assay. This entails the cells being seeded and their dissemination stimulated by the addition of HGF being recorded after a defined time. […] It is shown below by way of example for the matriptase inhibitors 37 and 54 that activation of proHGF by cellular matriptase is prevented and the scattering of proHGF-stimulated cells is reduced.
For this purpose, 500 matriptase-expressing prostate carcinoma cells (PC-3) were seeded in each well of a 96-well plate and incubated (37° C., 5% CO2) in 100 μl of medium without fetal calf serum (Nut Mix. F-12, 2% Ultroser HY) overnight, and then the scattering was stimulated by adding proHGF with and without matriptase inhibitors (3 μM). After 6 days, the cells were fixed and stained, and representative sections were photographed at 100× magnification.

In the case of `N=C(N)NCCC1CCN(C(=O)[C@H](Cc2cccc(C(=N)N)c2)NS(=O)(=O)c2ccc3ccccc3c2)CC1.O=C(O)C(F)(F)F.O=C(O)C(F)(F)F` [Compound 37, 2-Nas-Phe(3-Am) 4(guanidinoethyl)piperidide], the “inhibition of proHGF-induced scattering of PC-3 cells” value is reported as “inhibit the proHGF-induced scattering of PC-3 cells”.

target: T1, matriptase (Homo sapiens, UniProt Q9Y5Y6); assay: Determination of Ki values for the inhibition of matriptase (chromogenic substrate CH3SO2-D-HHT-Gly-Arg-pNA); format: biochemical; conditions: 25° C, pH 8.0, Dixon method, average of three determinations
T1 construct: Met-Lys-(His)6 (N, cleaved yes); made in house; host or cells: Escherichia coli BL21 (DE3), vector pET24
T1 sequence (Q9Y5Y6 615-854 limits assumed): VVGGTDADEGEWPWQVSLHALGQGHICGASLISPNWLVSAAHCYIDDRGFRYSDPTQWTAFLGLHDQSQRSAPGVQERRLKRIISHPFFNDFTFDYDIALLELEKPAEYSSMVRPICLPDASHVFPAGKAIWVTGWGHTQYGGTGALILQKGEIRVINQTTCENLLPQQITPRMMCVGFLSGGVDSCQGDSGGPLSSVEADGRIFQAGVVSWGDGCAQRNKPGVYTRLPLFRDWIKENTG
Experimental: Preparation of the Catalytic Domain of Matriptase
The steps were in detail:
Activation: Since a correctly processed N terminus is a precondition for the activity of serine proteases, it was necessary to delete the peptide MK(His)6 to activate the refolded matriptase. For this purpose, the refolding mixture was incubated with 2.5 mU per 50 μg of protein of activated DAPase™ (Qiagen) at 30° C. for 2 h, and the activated matriptase was separated from the non-activated matriptase and the DAPase by metal chelate chromatography.
The proteolytic activity was detected by cleavage of the chromogenic substrate Pefachrome tPA (Pentapharm).

Compared with “2,4,6-triisopropylphenylsulfonyl-Phe(3-Am)-iNip-DAE-H [Compound 3]”, “2,4,6-triisopropylphenylsulfonyl-Phe(3Am)-iNip-NH—CH2—CH2-guanidino [Compound 34]” is 2.6-fold higher in Ki: 53 nM for the first, 140 nM for the second.

First: N=C(N)c1cccc(CC(NS(=O)(=O)c2ccc3c(c2)C(=O)c2ccccc2C3=O)C(=O)N2CCN(C(=O)CCN)CC2)c1 (stereo not drawn) [Compound 2]
Second: CC(C)c1cc(C(C)C)c(S(=O)(=O)NC(Cc2cccc(C(=N)N)c2)C(=O)N2CCN(C(=O)CCCNC(=N)N)CC2)c(C(C)C)c1 (stereo not drawn) [Compound 7]
The Ki of the first is 2.9-fold higher: 160 nM for the first, 56 nM for the second. The second binds more tightly here.

First: N=C(N)c1cccc(C[C@H](NS(=O)(=O)c2ccc3cc4ccccc4cc3c2)C(=O)N2CCN(C(=O)CCN)CC2)c1 [Compound 10, anthracenesulfonyl-Phe(3-Am)-Pzd-β-Ala]
Second: N=C(N)NCCC(=O)N1CCN(C(=O)[C@H](Cc2cccc(C(=N)N)c2)NS(=O)(=O)c2ccc3cc4ccccc4cc3c2)CC1 [Compound 11, anthracenesulfonyl-Phe(3-Am)-Pzd-CO—CH2—CH2-guanidino]
The Ki of the first is 6.1-fold higher: 270 nM for the first, 44 nM for the second. The second binds more tightly here.

First: N=C(N)c1cccc(CC(NS(=O)(=O)c2ccc3ccccc3c2)C(=O)N2CCN(C(=O)CCN)CC2)c1 (stereo not drawn) [Compound 12]
Second: N=C(N)c1cccc(CC(NS(=O)(=O)c2ccc3c(c2)CCCC3)C(=O)N2CCN(C(=O)CCN)CC2)c1 (stereo not drawn) [Compound 14]
The Ki of the first is 2.1-fold higher: 830 nM for the first, 400 nM for the second. The second binds more tightly here.

Going from `N=C(N)NCCC(=O)N1CCN(C(=O)C(Cc2cccc(C(=N)N)c2)NS(=O)(=O)c2ccc3c(c2)CCCC3)CC1` (stereo not drawn) [Compound 15] to `N=C(N)c1cccc(CC(NS(=O)(=O)c2cccc3c2CCCC3)C(=O)N2CCN(C(=O)CCN)CC2)c1` (stereo not drawn) [Compound 16], the Ki rises from 300 nM to 990 nM (3.3-fold). The first binds more tightly here.

First: N=C(N)c1cccc(CC(NS(=O)(=O)c2ccc(C3CCCCC3)cc2)C(=O)N2CCN(C(=O)CCN)CC2)c1 (stereo not drawn) [Compound 17]
Second: N=C(N)c1cccc(CC(NS(=O)(=O)c2ccc(-c3ccccc3)cc2)C(=O)N2CCN(C(=O)CCN)CC2)c1 (stereo not drawn) [Compound 19]
The Ki of the first is 4.3-fold lower: 140 nM for the first, 600 nM for the second.

First: CC(C)(C)c1ccc(S(=O)(=O)NC(Cc2cccc(C(=N)N)c2)C(=O)N2CCN(C(=O)CCN)CC2)cc1 (stereo not drawn) [Compound 21]
Second: CC(C)(C)c1ccc(S(=O)(=O)NC(Cc2cccc(C(=N)N)c2)C(=O)N2CCN(C(=O)CCNC(=N)N)CC2)cc1 (stereo not drawn) [Compound 22]
The Ki of the first is 2.4-fold higher: 470 nM for the first, 200 nM for the second.

`Cc1c(C)c(S(=O)(=O)NC(Cc2cccc(C(=N)N)c2)C(=O)N2CCN(C(=O)CCN)CC2)c(C)c2c1OC(C)(C)C2` (stereo not drawn) [Compound 23] and `N=C(N)c1cccc(CC(NS(=O)(=O)Cc2ccc3ccccc3c2)C(=O)N2CCN(C(=O)CCN)CC2)c1` (stereo not drawn) [Compound 25] are within 1.5-fold of each other in Ki: 3300 nM for the first, 2400 nM for the second.

`N=C(N)NCCC(=O)N1CCN(C(=O)C(Cc2cccc(C(=N)N)c2)NS(=O)(=O)Cc2ccc3ccccc3c2)CC1` (stereo not drawn) [Compound 26] and `N=C(N)c1cccc(CC(NS(=O)(=O)c2ccc3c(c2)C(=O)c2ccccc2C3=O)C(=O)N2CCN(C(=O)C3CNC3)CC2)c1` (stereo not drawn) [Compound 27] are within 1.5-fold of each other in Ki: 400 nM for the first, 460 nM for the second.

First: N=C(N)NCCNC(=O)C1CCN(C(=O)C(Cc2cccc(C(=N)N)c2)NS(=O)(=O)c2ccc3c(c2)C(O)c2ccccc2C3O)CC1 (stereo not drawn) [Compound 32]
Second: N=C(N)CCNC(=O)C1CCN(C(=O)C(Cc2cccc(C(=N)N)c2)NS(=O)(=O)c2ccc3ccccc3c2)CC1 (stereo not drawn) [Compound 35]
The Ki of the first is 16-fold lower: 9.8 nM for the first, 160 nM for the second. The first binds more tightly here.

First: N=C(N)c1cccc(C[C@H](NS(=O)(=O)c2ccc3ccccc3c2)C(=O)N2CCC(CCN)CC2)c1 [Compound 36, 2-Nas-Phe(3-Am) 4(aminoethyl)piperidide]
Second: N=C(N)c1cccc(CC(NS(=O)(=O)c2cccc3ccccc23)C(=O)N2CCC(CCN)CC2)c1 (stereo not drawn) [Compound 39]
The Ki of the first is 1.5-fold lower: 110 nM for the first, 170 nM for the second.

First: N=C(N)c1cccc(CC(NC(=O)CNS(=O)(=O)c2ccc3ccccc3c2)C(=O)N2CCN(C(=O)CCN)CC2)c1 (stereo not drawn) [Compound 40]
Second: N=C(N)NCCC1CCN(C(=O)C(Cc2cccc(C(=N)N)c2)NS(=O)(=O)c2cccc3ccccc23)CC1 (stereo not drawn) [Compound 41]
The Ki of the first is 97-fold higher: 7200 nM for the first, 74 nM for the second. The second binds more tightly here.

First: N=C(N)c1cccc(CC(NS(=O)(=O)CCc2cccc3ccccc23)C(=O)N2CCC(CCN)CC2)c1 (stereo not drawn) [Compound 42]
Second: N=C(N)NCCC1CCN(C(=O)C(Cc2cccc(C(=N)N)c2)NS(=O)(=O)CCc2cccc3ccccc23)CC1 (stereo not drawn) [Compound 43]
The Ki of the first is 2-fold higher: 360 nM for the first, 180 nM for the second.

Going from `N=C(N)c1cccc(CC(NC(=O)CNS(=O)(=O)c2ccc3ccccc3c2)C(=O)N2CCC(CCN)CC2)c1` (stereo not drawn) [Compound 44] to `N=C(N)c1cccc(CC(NS(=O)(=O)c2ccc(C3CCCCC3)cc2)C(=O)N2CCC(CCN)CC2)c1` (stereo not drawn) [Compound 45], the Ki falls from 21000 nM to 140 nM (150-fold).

First: N=C(N)c1cccc(CC(NC(=O)CNS(=O)(=O)c2ccc3ccccc3c2)C(=O)N2CCC(C(=O)NCCCNC(=O)OCc3ccccc3)CC2)c1 (stereo not drawn) [Compound 47]
Second: N=C(N)c1cccc(CC(NC(=O)CNS(=O)(=O)c2ccc3ccccc3c2)C(=O)N2CCC(C(=O)NCCCN)CC2)c1 (stereo not drawn) [Compound 48]
The Ki of the first is 11-fold higher: 3900 nM for the first, 360 nM for the second. The second binds more tightly here.

Compared with `N=C(N)CCNC(=O)C1CCN(C(=O)C(Cc2cccc(C(=N)N)c2)NC(=O)CNS(=O)(=O)c2ccc3ccccc3c2)CC1` (stereo not drawn) [Compound 49], `N=C(N)c1cccc(CC(NC(=O)CNS(=O)(=O)c2ccc(S(=O)(=O)N3CCOCC3)cc2)C(=O)N2CCN(C(=O)CCN)CC2)c1` (stereo not drawn) [Compound 50] is 22-fold higher in Ki: 160 nM for the first, 3500 nM for the second.

Compared with `N=C(N)NCCC(=O)N1CCN(C(=O)C(Cc2cccc(C(=N)N)c2)NC(=O)CNS(=O)(=O)c2ccc(S(=O)(=O)N3CCOCC3)cc2)CC1` (stereo not drawn) [Compound 51], `N=C(N)c1cccc(CC(NS(=O)(=O)c2ccc(C3CCCCC3)cc2)C(=O)N2CCC(C(=O)N3CCN(C(=N)N)CC3)CC2)c1` (stereo not drawn) [Compound 54] is 28-fold lower in Ki: 890 nM for the first, 32 nM for the second. The second binds more tightly here.

Compared with `N=C(N)c1cccc(CC(NS(=O)(=O)c2ccc(C3CCCCC3)cc2)C(=O)N2CCN(C(=N)N)CC2)c1` (stereo not drawn) [Compound 55], `N=C(N)c1cccc(CC(NS(=O)(=O)c2ccc(C3CCCCC3)cc2)C(=O)N2CCNCC2)c1` (stereo not drawn) [Compound 58] is 1.8-fold lower in Ki: 980 nM for the first, 550 nM for the second. The second binds more tightly here.

`N=C(N)c1cccc(CC(NS(=O)(=O)c2ccc(C3CCCCC3)cc2)C(=O)N2CCN(C(=O)C3CCNCC3)CC2)c1` (stereo not drawn) [Compound 60] and `N=C(N)CC(=O)N1CCN(C(=O)C(Cc2cccc(C(=N)N)c2)NS(=O)(=O)c2ccc(C3CCCCC3)cc2)CC1` (stereo not drawn) [Compound 61] are within 1.5-fold of each other in Ki: 310 nM for the first, 380 nM for the second.

`N=C(N)CC(=O)N1CCN(C(=O)C(Cc2cccc(C(=N)N)c2)NS(=O)(=O)c2ccc3ccccc3c2)CC1` (stereo not drawn) [Compound 62] and `CC(C)c1cc(C(C)C)c(S(=O)(=O)NC(Cc2cccc(C(=N)N)c2)C(=O)N2CCN(C(=O)C3CCN(C(=O)OC(C)(C)C)CC3)CC2)c(C(C)C)c1` (stereo not drawn) [Compound 65] are within 1.5-fold of each other in Ki: 1100 nM for the first, 830 nM for the second.

Going from `N=C(N)c1cccc(CC(NS(=O)(=O)c2ccc3ccccc3c2)C(=O)N2CC(C(=O)N3CCNCC3)C2)c1` (stereo not drawn) [Compound 66] to `N=C(N)c1cccc(CC(NS(=O)(=O)c2ccc3ccccc3c2)C(=O)N2CC(C(=O)N3CCN(C(=N)N)CC3)C2)c1` (stereo not drawn) [Compound 67], the Ki falls from 13000 nM to 3400 nM (3.8-fold).

With `N=C(N)NCCC1CCN(C(=O)C(Cc2cccc(C(=N)N)c2)NC(=O)CNS(=O)(=O)c2ccc3c(c2)Cc2ccccc2C3)CC1` (stereo not drawn) [Compound 68] the Ki was 38 nM.
